The text below walks through data of patent publication US8575111B2, “Pharmaceutical compositions and methods for treating erectile dysfunction” (Universidade Federal de Minas Garais-UFMG, priority 2007, dated 2013).

For data set [1], the system named is rat ganglionic-stimulated erectile response. Put plainly: Ganglionic-stimulated changes in CCP/MAP after intracavernosal drug administration in anesthetized rats. The format is in vivo. The protocol:
Normotensive and DOCA-salt hypertensive rats, Mas−/− and WT mice were anesthetized with intraperitoneal urethane (140 mg/Kg). The rat left femoral artery and mice […] was cannulated for continuous monitoring of mean arterial pressure (MAP). The shaft of the penis was freed of skin and fascia, and the right corpus cavernosum was cannulated by insertion of a 30-gauge needle connected to a pressure transducer, permitting continuous monitoring of corpus cavernosum pressure (CCP) as described elsewhere (see, e.g., T. M. Mills, et al., Biol Reprod 59, 1413 (December, 1998)). The rat left corpus cavernosum was cannulated with 30-gauge needles attached to 10-μL syringes via short lengths of polyethylene (PE)-10 tubing and used for administration of vasoactive drugs. The abdominal cavity was opened, exposing the right major pelvic ganglion (MPG), and silver bipolar electrodes were positioned on it. […]
In order to evaluate the role of the Ang-(1-7) released endogenously, it was first determined the minimal stimuli in which the maximal value of the CCP/MAP was achieved. […]
To evaluate the effect of Ang-(1-7) on ganglionic-stimulated CCP/MAP rise in the presence of NOS inhibition, a sub-maximal stimulus was determined and applied to the MPG. […] Thereafter, Ang-(1-7) was administered and sub-maximal stimulus was applied while CCP/MAP was continuously recorded.

The target in another data set is T1, AT1 (Homo sapiens, UniProt P30556).
T1 sequence (P30556 1-359): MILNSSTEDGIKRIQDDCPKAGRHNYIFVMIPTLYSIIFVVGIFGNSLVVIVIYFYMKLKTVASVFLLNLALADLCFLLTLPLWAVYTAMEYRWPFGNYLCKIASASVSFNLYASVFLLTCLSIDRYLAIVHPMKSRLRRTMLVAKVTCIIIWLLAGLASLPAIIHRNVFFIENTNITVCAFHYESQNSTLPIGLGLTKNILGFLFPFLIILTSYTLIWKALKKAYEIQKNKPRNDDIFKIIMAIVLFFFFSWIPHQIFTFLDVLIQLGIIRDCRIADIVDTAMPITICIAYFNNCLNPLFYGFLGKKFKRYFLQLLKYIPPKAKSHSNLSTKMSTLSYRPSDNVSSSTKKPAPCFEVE
The following applies: receptor AT1; cited from earlier work.

The next data set deals with erectile function of SHR. The experiment in a line: Erectile function (CCP/MAP) of SHR chronically treated orally. The format is in vivo, rat. The following applies: chronic oral treatment, drug alone, 1.5 V. As to the method:
Eight weeks post-treatment with Ang-(1-7)/HPβ-CD Inclusion Complex and/or Atenolol, the erectile function of the animals (SHR, spontaneously hypertensive rats) was evaluated. Particularly, erectile function of animals chronically treated with Atenolol was evaluated after concurrent administration with Ang-(1-7)/HPβ-CD Inclusion Complex. The drugs were orally administered via solutions containing them, alone or in combination. As a control, a group of animals was treated with HPβ-CD.
The procedure for inducing erection and intracavernosal pressure measurement was made as previously described (see, T. M. Mills, R. W. Lewis, V. S. Stopper, Biol Reprod 59, 1413 (December, 1998). Firstly, the animals (SHR) were anesthetized with intraperitoneal urethane (140 mg/kg) and placed on a thermal plate to maintain body temperature at 37° C. A polyethylene cannule was introduced into the animal trachea to keep respiratory patency. Following, the rat left femoral artery was cannulated with a polyethylene tube (PE-50) with heparinized saline (200 U/ml) for continuous monitoring of mean arterial pressure (MAP). The catheter was connected to a pressure transducer. The penial erection was obtained by applying electric stimulation on the major pelvic ganglion (MPG). […]

In another data set the test system is erectile dysfunction. The following applies: men with erectile dysfunction; cited from earlier work.
A short description of data set [2]: Absorption and biological stability after gavage in Wistar rats. The format is in vivo, rat. The following applies: Ang-(1-7) peptide alone, gavage 100 μg/50 μl. As to the method:
Assays for determining absorption and biological stability of the Ang-(1-7)/HPβ-CD inclusion complex were made in aqueous solution. Twelve normal Wistar rats properly prepared were used to carry out the experiments. The animals were divided in 3 experimental groups and subjected to a gavage procedure with a salt solution (0.9%/50 μl) of Ang-(1-7) (100 μg/50 μl) and Ang-(1-7)/HPβ-CD (100 μg/50 μl). Four blood samples (1 ml, each) from the animals were collected. The first collection occurred before gavage procedure, and the remaining three 2, 6 and 24 hours post gavage.

With `COC(=O)[C@@H](N)CCCNC(=N)N[N+](=O)[O-]` [L-NAME, Nw-nitro-L-arginine methyl ester], the “CCP/MAP induced by submaximal stimulus” value in data set [1] (L-NAME 200 μg/Kg intracavernosal, mean±s.e.m., n=6, control 0.57±0.06, P<0.05) is 0.38±0.05. Further, the “effect on baseline CCP or MAP” value in data set [1] (administration into left cavernosal sinuses) is listed as “did not alter”.
Take “Des-Asp1-Ang I: angiotensin listed in Table 1, acting on AT1 (RVYIHPFHL; Angiotensin-1; UniProt P01019 26-34, looked up, fragment)”: the Actions result with AT1 is reported as “Inhibition of Ang II-induced cell”.
On to `CC(C)NCC(O)COc1ccc(CC(N)=O)cc1` (stereo not drawn) [Atenolol, atenolol], for which, in the data set on erectile function of SHR, the “effect on intracavernosal pressure rise induced by stimulation of the major pelvic ganglion” value was “reduced”.
With `CCCCC[C@H](O)/C=C/[C@H]1[C@H](O)CC(=O)[C@@H]1CCCCCCC(=O)O` [ALPROSTADIL®], the “patients in whom the treatment is effective” value in the data set with erectile dysfunction is recorded as “over 80%”.
For `CC[C@H](C)[C@H](NC(=O)[C@H](Cc1ccc(O)cc1)NC(=O)[C@@H](NC(=O)[C@H](CCCNC(=N)N)NC(=O)[C@@H](N)CC(=O)O)C(C)C)C(=O)N[C@@H](Cc1c[nH]cn1)C(=O)N1CCC[C@H]1C(=O)O` [Ang-(1-7), Asp-Arg-Val-Tyr-Ile-His-Pro], the “increase of plasmatic peptide concentration relative to Ang-(1-7)/HPβ-CD” value in data set [2] was “about 8 fold lower”.
